Data as given in patent US11981661B2, “Heterocyclic compounds” (Hoffmann-La Roche Inc., priority 2020, dated 2024).

Molecular target: T1, MAGL (Homo sapiens, UniProt Q99685)
T1 sequence (Q99685 1-303): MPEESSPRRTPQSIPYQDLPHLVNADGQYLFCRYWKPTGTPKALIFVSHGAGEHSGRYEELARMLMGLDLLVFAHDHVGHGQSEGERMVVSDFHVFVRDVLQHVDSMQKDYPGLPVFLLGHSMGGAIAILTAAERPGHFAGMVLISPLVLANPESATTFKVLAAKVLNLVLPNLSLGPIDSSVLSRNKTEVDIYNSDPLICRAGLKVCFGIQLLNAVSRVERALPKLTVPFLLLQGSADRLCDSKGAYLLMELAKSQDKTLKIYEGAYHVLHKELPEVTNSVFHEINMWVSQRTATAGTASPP
Assay: 2-AG assay (MAGL inhibitory activity, hydrolysis of 2-arachidonoylglycerol followed by mass spectrometry)
Format: biochemical
Conditions: 50 pM MAGL, 8 μM 2-arachidonoylglycerol, 15 min preincubation, 30 min incubation at RT, concentration range 12.5 μM to 0.8 pM
Method: Compounds were profiled for MAGL inhibitory activity by determining the enzymatic activity by following the hydrolysis of the natural substrate 2-arachidonoylglycerol resulting in arachidonic acid, which can be followed by mass spectrometry. This assay is hereinafter abbreviated “2-AG assay”.
The 2-AG assay was carried out in 384 well assay plates (PP, Greiner Cat #784201) in a total volume of 20 μL. Compound dilutions were made in 100% DMSO (VWR Chemicals 23500.297) in a polypropylene plate in 3-fold dilution steps to give a final concentration range in the assay from 12.5 μM to 0.8 pM. 0.25 μL compound dilutions (100% DMSO) were added to 9 μL MAGL in assay buffer (50 mM TRIS (GIBCO, 15567-027), 1 mM EDTA (Fluka, 03690-100 mL), 0.01% (v/v) Tween. After shaking, the plate was incubated for 15 min at RT. To start the reaction, 10 μL 2-arachidonoylglycerol in assay buffer was added. The final concentrations in the assay was 50 pM MAGL and 8 μM 2-arachidonoylglyerol. After shaking and 30 min incubation at RT, the reaction was quenched by the addition of 40 μL of ACN containing 4 μM of d8-arachidonic acid. The amount of arachidonic acid was traced by an online SPE system (Agilent Rapidfire) coupled to a triple quadrupole mass spectrometer (Agilent 6460). A C18 SPE cartridge (G9205A) was used in an ACN/water liquid setup. The mass spectrometer was operated in negative electrospray mode following the mass transitions 303.1→259.1 for arachidonic acid and 311.1→267.0 for d8-arachidonic acid. The activity of the compounds was calculated based on the ratio of intensities [arachidonic acid/d8-arachidonic acid].

IC50 [nM]	SMILES
22	O=C1N[C@H](CCC(=O)N2CC3(CCC(Oc4ccc(C(F)(F)F)nn4)CC3)C2)CO1 [Example 136, (4R)-4-[3-Oxo-3-[7-[6-(trifluoro-methyl)pyridazin-3-yl]oxy-2-azaspiro[3.5]nonan-2-yl]propyl] oxazolidin-2-one]
14	COC(=O)c1cc(Cl)ccc1Oc1ccc(C2CN(C(=O)CC[C@@H]3COC(=O)N3)C2)cn1 [Example 199, Methyl 5-chloro-2-[[5-[1-[3-[(4R)-2-oxooxazolidin-4-yl]propanoyl]azetidin-3-yl]-2-pyridyl]oxy]benzoate]
23	CC(C)(Oc1ccc(C2CN(C(=O)CCCc3cnn[nH]3)C2)cc1)C(F)(F)F [Example 41, 4-(1H-Triazol-5-yl)-1-[3-[4-(2,2,2-trifluoro-1,1-dimethyl-ethoxy)phenyl]azetidin-1-yl]butan-1-one]
78	O=C1N[C@H](CCC(=O)N2CC(c3ccc(N4CC5(C4)CC(F)(F)C5)nc3)C2)CO1 [Example 141, (4R)-4-[3-[3-[6-(6,6-Difluoro-2-azaspiro[3.3]heptan-2-yl)-3-pyridyl]azetidin-1-yl]-3-oxo-propyl]oxazolidin-2-one]
12	O=C1N[C@H](CCC(=O)N2CC(c3cnc(NCC4(C(F)(F)F)CC4)cn3)C2)CO1 [Example 176, (4R)-4-[3-Oxo-3-[3-[5-[[1-(trifluoromethyl)cyclopropyl]methylamino]pyrazin-2-yl]azetidin-1-yl]propyl] oxazolidin-2-one]
3	O=C1N[C@H](CCC(=O)N2CC(c3ccc(N4CCC(C(F)(F)F)C4)c(F)c3)C2)CO1 (stereo partly drawn) [Example 129, (4R)-4-[3-[3-[3-Fluoro-4-[3-(trifluoromethyl)pyrrolidin-1-yl]phenyl]azetidin-1-yl]-3-oxo-propyl]oxazolidin-2-one]
26	O=C1CCC(CCC(=O)N2CC(c3ccc(CC(F)(F)F)cc3)C2)N1 (single isomer, unassigned) [Example 8, (+)- or (−)-5-[3-Oxo-3-[3-[4-(2,2,2-trifluoroethyl)phenyl]azetidin-1-yl]propyl]pyrrolidin-2-one]
216	O=C1N[C@H](CCC(=O)N2CC(c3cnc(N4CCC(C(F)(F)F)C4)nc3)C2)CO1 (stereo partly drawn) [Example 107, (4R)-[3-Oxo-3-[3-[2-[3-(trifluoro-methyl)pyrrolidin-1-yl]pyrimidin-5-yl]azetidin-1-yl]propyl]oxazolidin-2-one]
65	O=C1N[C@H](CCC(=O)N2CC(c3ccc(N4CC(C(F)(F)F)C4)nc3)C2)CO1 [Example 161, (4R)-4-[3-Oxo-3-[3-[6-[3-(trifluoro-methyl)azetidin-1-yl]-3-pyridyl]azetidin-1-yl]propyl]oxazolidin-2-one]
43	O=C1N[C@H](CCC(=O)N2CC(c3cnc(N4CCC(C(F)(F)F)C4)cn3)C2)CO1 (stereo partly drawn) [Example 105, (4R)-4-[3-Oxo-3-[3-[5-[3-(trifluoro-methyl)pyrrolidin-1-yl]pyrazin-2-yl]azetidin-1-yl]propyl] oxazolidin-2-one]
122	O=C(CC(O)Cc1cnn[nH]1)N1CC(c2ccc(C3(C(F)(F)F)CC3)cc2)C1 (centres unmarked) [Example 69, 3-Hydroxy-4-(1H-triazol-5-yl)-1-[3-[4-[1-(trifluoromethyl)cyclopropyl]phenyl]azetidin-1-yl]butan-1-one]
13	CC(C[C@@H]1COC(=O)N1)C(=O)N1CC(OCc2ccc(C(F)(F)F)cc2F)C1 (stereo partly drawn) [Example 35, (4R)-4-[3-[3-[[2-Fluoro-4-(trifluoromethyl)phenyl]methoxy]azetidin-1-yl]-2-methyl-3-oxo-propyl]oxazolidin-2-one]
35	O=C1N[C@H](CCC(=O)N2CC(c3ccc(S(=O)(=O)C4CCCCC4)cc3)C2)CO1 [Example 77, (4R)-4-[3-[3-(4-Cyclohexylsulfonyl-phenyl)azetidin-1-yl]-3-oxo-propyl] oxazolidin-2-one]
75	O=C1N[C@H](CCC(=O)N2CC(c3ccc([C@H]4C[C@H](C(F)(F)F)C4)nc3)C2)CO1 [Example 203, Trans-(4R)-4-[3-Oxo-3-[3-[6-[3-(trifluoromethyl)cyclobutyl]-3-pyridyl]azetidin-1-yl]propyl]oxazolidin-2-one]
481	O=C1N[C@H](CCC(=O)N2CC(c3cnc(C4(C(F)(F)F)CC4)nc3)C2)CO1 [Example 101, (4R)-4-[3-Oxo-3-(3-[2-[1-(trifluoro-methyl)cyclopropyl]pyrimidin-5-yl]azetidin-1-yl]propyl]oxazolidin-2-one]
19	O=C(OCCc1cnn[nH]1)N1CC(OCc2ccc(C(F)(F)F)cc2F)C1 [Example 63, 2-(1H-Triazol-5-yl)ethyl 3-[[2-fluoro-4-(trifluoro-methyl)phenyl]methoxy]azetidine-1-carboxylate]
≥ 12500	CC1(CCC(=O)N2CC(c3ccc(Oc4cccc(Cl)c4)nc3)C2)CCC(=O)N1 (single isomer, unassigned) [Example 17, (−)- or (+)-5-[3-[3-[6-(3-Chlorophenoxy)-3-pyridyl]azetidin-1-yl]-3-oxo-propyl]-5-methyl-pyrrolidin-2-one]
9	O=C1N[C@H](CCC(=O)N2CC(c3ccc(N4CC5(C4)CC(F)(F)C5)cc3)C2)CO1 [Example 132, (4R)-4-[3-[3-[4-(6,6-Difluoro-2-azaspiro[3.3]heptan-2-yl)phenyl]azetidin-1-yl]-3-oxo-propyl]oxazolidin-2-one]
32	O=C1NC(COC(=O)N2CC(c3ccc(N4CCC(C(F)(F)F)C4)nc3)C2)CO1 (single isomer, unassigned) [Example 87, (+)- or (−)-[(4S)-2-Oxooxazolidin-4-yl]methyl 3-[6-[3-(trifluoromethyl)pyrrolidin-1-yl]-3-pyridyl]azetidine-1-carboxylate]
25	O=C1N[C@H](CCC(=O)N2CC3(CCN(Cc4ccc(C(F)(F)F)cc4F)CC3)C2)CO1 [Example 126, (4R)-4-[3-[7-[[2-Fluoro-4-(trifluoro-methyl)phenyl]methyl]-2,7-diazaspiro[3.5]nonan-2-yl]-3-oxo-propyl] oxazolidin-2-one]
434	O=C1N[C@H](CCC(=O)N2CCC(CNS(=O)(=O)c3ccc(OC(F)(F)F)cc3)CC2)CO1 [Example 159, N-[[1-[3-[(4R)-2-Oxooxazolidin-4-yl]propanoyl]-4-piperidyl]methyl]-4-(trifluoro-methoxy)benzene-sulfonamide]
279	O=C1N[C@H](CCC(=O)N2CC(NCc3cc(C(F)(F)F)ccc3F)C2)CO1 [Example 156, (4R)-4-[3-[3-[[2-Fluoro-5-(trifluoro-methyl)phenyl]methylamino]azetidin-1-yl]-3-oxo-propyl] oxazolidin-2-one]
582	O=C1N[C@H](CCC(=O)N2CCC(CNS(=O)(=O)c3ccc(C(F)(F)F)cc3)CC2)CO1 [Example 158, N-[[1-[3-[(4R)-2-Oxooxazolidin-4-yl]propanoyl]-4-piperidyl]methyl]-4-(trifluoro-methyl)benzene-sulfonamide]
58	O=C(CCCc1cnn[nH]1)N1CC(OCc2ccc(C(F)(F)F)cc2F)C1 [Example 39, 1-[3-[[2-Fluoro-4-(trifluoromethyl)phenyl]methoxy]azetidin-1-yl]-4-(1H-triazol-5-yl)butan-1-one]
3	O=C1N[C@H](CCC(=O)N2CC(c3ccc(-c4ccc(Cl)cc4F)cn3)C2)CO1 [Example 113, (4R)-4-[3-[3-[5-(4-Chloro-2-fluoro-phenyl)-2-pyridyl]azetidin-1-yl]-3-oxo-propyl]oxazolidin-2-one]
1800	O=C1N[C@H](CCC(=O)N2CC(c3ccc(Oc4nccc(C(F)(F)F)n4)cc3)C2)CO1 [Example 127, (4R)-4-[3-Oxo-3-[3-[4-[4-(trifluoro-methyl)pyrimidin-2-yl]oxyphenyl]azetidin-1-yl]propyl]oxazolidin-2-one]
73	O=C1N[C@H](CCC(=O)N2CC3(CCC(Cc4ccc(C(F)(F)F)nc4)C3)C2)CO1 (stereo partly drawn) [Example 198, (4R)-4-[3-Oxo-3-[6-[[6-(trifluoro-methyl)-3-pyridyl]methyl]-2-azaspiro[3.4]octan-2-yl]propyl]oxazolidin-2-one]
1330	CC1(O)CN(c2ccc(C3CN(C(=O)CC[C@@H]4COC(=O)N4)C3)cn2)C1 [Example 160, (4R)-4-[3-[3-[6-(3-Hydroxy-3-methyl-azetidin-1-yl)-3-pyridyl]azetidin-1-yl]-3-oxo-propyl]oxazolidin-2-one]
83	O=C1N[C@H](CCC(=O)N2CC(c3ccc(Oc4ccc(OC(F)(F)F)cc4)nc3)C2)CO1 [Example 31, (4R)-4-[3-Oxo-3-[3-[6-[4-(trifluoromethoxy)phenoxy]-3-pyridyl]azetidin-1-yl]propyl]oxaazolidin-2-one]
